According to ChEMBL document CHEMBL1201862, “PubChem BioAssay data set” (2004):
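These data come from cells grown in 96-well plates and exposed to compound for 48 hours at five concentrations. GI50 = concentration required for 50% inhibition of growth.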 Calls of active or inactive are those of the source. Cut-off read from the data, not from the text of the source: active = GI50 up to about 1.1 µM and inactive = higher.

How the values were obtained:
Test in all cases: DTP human tumour cell line panel, 48 h
K562 = tested on: K562
OVCAR-3 = tested on: OVCAR-3
ACHN = tested on: ACHN
SNB-78 = tested on: SNB-78
OVCAR-4 = tested on: OVCAR-4
HT-29 = tested on: HT-29
UACC-257 = tested on: UACC-257
M14 = tested on: M14
SW-620 = tested on: SW-620
SN12C = tested on: SN12C
HCT-15 = tested on: HCT-15
SK-MEL-28 = tested on: SK-MEL-28
A549 = tested on: A549
MOLT-4 = tested on: MOLT-4
SF-539 = tested on: SF-539
CCRF-CEM = tested on: CCRF-CEM
A498 = tested on: A498
MCF7 = tested on: MCF7
T47D = tested on: T47D
BT-549 = tested on: BT-549

Structure (SMILES) | GI50 (K562) | GI50 (OVCAR-3) | GI50 (ACHN) | GI50 (SNB-78) | GI50 (OVCAR-4) | GI50 (HT-29) | GI50 (UACC-257) | GI50 (M14) | GI50 (SW-620) | GI50 (SN12C) | GI50 (HCT-15) [µM] | GI50 (SK-MEL-28) | GI50 (A549) | GI50 (MOLT-4) | GI50 (SF-539) | GI50 (CCRF-CEM) | GI50 (A498) | GI50 (MCF7) | GI50 (T47D) | GI50 (BT-549)
CC(=O)OC1(Sc2ccccc2)CC2[C@H]3COC(C)(C)O[C@H]3CC[C@@]2(C)CC1=O (stereo partly drawn) | 30.1 µM (inactive) | 37.2 µM (inactive) | 41.5 µM (inactive) | > 100 µM (inactive) | 71.6 µM (inactive) | 88.5 µM (inactive) | 49.9 µM (inactive) | 34.6 µM (inactive) | 52.4 µM (inactive) | 23.4 µM (inactive) | 34.9 | > 100 µM (inactive) | 43.2 µM (inactive) | 9.95 µM (inactive) | 26.1 µM (inactive) | – | – | – | – | –
Oc1cccc(-c2cccc(O)n2)n1 | > 100 µM (inactive) | > 100 µM (inactive) | > 100 µM (inactive) | > 100 µM (inactive) | – | > 100 µM (inactive) | > 100 µM (inactive) | > 100 µM (inactive) | > 100 µM (inactive) | > 100 µM (inactive) | > 100 | > 100 µM (inactive) | > 100 µM (inactive) | > 100 µM (inactive) | > 100 µM (inactive) | > 100 µM (inactive) | – | – | – | –
O=c1c(Cl)c(Cl)cnn1CCc1ccncc1 | 35.3 µM (inactive) | 17.6 µM (inactive) | 19.2 µM (inactive) | 25.1 µM (inactive) | 18.6 µM (inactive) | 16.6 µM (inactive) | 17.7 µM (inactive) | 16.7 µM (inactive) | 19.1 µM (inactive) | 18 µM (inactive) | 16.4 | 16.4 µM (inactive) | 37.9 µM (inactive) | 82.6 µM (inactive) | 21.5 µM (inactive) | 19.1 µM (inactive) | 21.6 µM (inactive) | – | – | –
CC(C)(CN1CCCCC1)C(=O)/C=C/c1ccc(Cl)cc1 | 2.69 µM (inactive) | 2.77 µM (inactive) | 5.12 µM (inactive) | 3.24 µM (inactive) | 4.27 µM (inactive) | 3.22 µM (inactive) | 6.4 µM (inactive) | 2.51 µM (inactive) | 2.57 µM (inactive) | 2.61 µM (inactive) | 2.65 | 8.17 µM (inactive) | 3.42 µM (inactive) | 1.81 µM (inactive) | 2.23 µM (inactive) | 2.09 µM (inactive) | 2.73 µM (inactive) | – | – | –
CCCCCCCCCCCCCCCCCC(=O)OCC(C[As](=O)(O)O)OC(=O)CCCCCCCCCCCCCCCCC (stereo not drawn) | 44.7 µM (inactive) | 60.4 µM (inactive) | 34.3 µM (inactive) | 20.4 µM (inactive) | > 100 µM (inactive) | 34.4 µM (inactive) | > 100 µM (inactive) | > 100 µM (inactive) | 16 µM (inactive) | 50.1 µM (inactive) | 38.4 | > 100 µM (inactive) | > 100 µM (inactive) | > 100 µM (inactive) | 32.6 µM (inactive) | 39 µM (inactive) | > 100 µM (inactive) | – | – | –
CC1O[C@@H]2CCCCC(=O)[C@]2(C)[C@H]1C (stereo partly drawn) | > 100 µM (inactive) | > 100 µM (inactive) | > 100 µM (inactive) | > 100 µM (inactive) | > 100 µM (inactive) | > 100 µM (inactive) | > 100 µM (inactive) | > 100 µM (inactive) | > 100 µM (inactive) | > 100 µM (inactive) | > 100 | > 100 µM (inactive) | > 100 µM (inactive) | > 100 µM (inactive) | – | > 100 µM (inactive) | – | – | – | –
CC12C3CC4C5CC(C(C53)[C@@H]1NCc1ccccc1)C42 (stereo partly drawn) | 62.7 µM (inactive) | 54.3 µM (inactive) | > 100 µM (inactive) | > 100 µM (inactive) | > 100 µM (inactive) | 24.4 µM (inactive) | > 100 µM (inactive) | > 100 µM (inactive) | > 100 µM (inactive) | > 100 µM (inactive) | 78.9 | > 100 µM (inactive) | > 100 µM (inactive) | > 100 µM (inactive) | > 100 µM (inactive) | > 100 µM (inactive) | > 100 µM (inactive) | – | – | –
COc1cc2cnc3c4cc(OC)c(OC(C)C)cc4ccc3c2cc1OC | > 100 µM (inactive) | > 100 µM (inactive) | > 100 µM (inactive) | > 100 µM (inactive) | > 100 µM (inactive) | > 100 µM (inactive) | > 100 µM (inactive) | > 100 µM (inactive) | > 100 µM (inactive) | > 100 µM (inactive) | > 100 | > 100 µM (inactive) | > 100 µM (inactive) | > 100 µM (inactive) | > 100 µM (inactive) | > 100 µM (inactive) | – | – | – | –
Brc1ccc(C2CC3(c4ccccc4)ON=C(c4ccccc4)N3c3ccccc3S2)cc1 (stereo not drawn) | > 100 µM (inactive) | > 100 µM (inactive) | > 100 µM (inactive) | – | > 100 µM (inactive) | 9.16 µM (inactive) | > 100 µM (inactive) | > 100 µM (inactive) | > 100 µM (inactive) | > 100 µM (inactive) | > 100 | > 100 µM (inactive) | > 100 µM (inactive) | > 100 µM (inactive) | > 100 µM (inactive) | > 100 µM (inactive) | > 100 µM (inactive) | > 100 µM (inactive) | > 100 µM (inactive) | > 100 µM (inactive)
Cc1cc(C)c2c(c1)Nc1ccccc1P2c1ccccc1 (stereo not drawn) | 24.5 µM (inactive) | 24.6 µM (inactive) | > 10 µM (inactive) | 41.8 µM (inactive) | 26.9 µM (inactive) | 20.3 µM (inactive) | – | 36.8 µM (inactive) | 39.8 µM (inactive) | 9.82 µM (inactive) | 16.9 | 44.1 µM (inactive) | 32.1 µM (inactive) | 4.51 µM (inactive) | – | – | – | – | – | –
Cc1cc(N2CCCC2)c([N+](=O)[O-])cc1[N+](=O)[O-] | > 100 µM (inactive) | > 100 µM (inactive) | > 100 µM (inactive) | – | > 100 µM (inactive) | > 100 µM (inactive) | > 100 µM (inactive) | > 100 µM (inactive) | > 100 µM (inactive) | > 100 µM (inactive) | > 100 | > 100 µM (inactive) | > 100 µM (inactive) | > 100 µM (inactive) | > 100 µM (inactive) | > 100 µM (inactive) | > 100 µM (inactive) | > 100 µM (inactive) | > 100 µM (inactive) | > 100 µM (inactive)
Cn1nc(-c2cccc(-c3nn(C)/c(=N\CCO)s3)n2)s/c1=N/CCO | > 100 µM (inactive) | – | > 100 µM (inactive) | 41.6 µM (inactive) | > 100 µM (inactive) | > 100 µM (inactive) | > 100 µM (inactive) | > 100 µM (inactive) | > 100 µM (inactive) | > 100 µM (inactive) | > 100 | > 100 µM (inactive) | > 100 µM (inactive) | > 100 µM (inactive) | > 100 µM (inactive) | > 100 µM (inactive) | > 100 µM (inactive) | – | – | –
O=C1C(Cl)C(c2cc3cc(Br)ccc3nc2Cl)N1c1ccc(F)c(Cl)c1 (stereo not drawn) | 3.07 µM (inactive) | 4.13 µM (inactive) | 8.53 µM (inactive) | – | 1.76 µM (inactive) | 10.7 µM (inactive) | 11.4 µM (inactive) | 9.42 µM (inactive) | 5.98 µM (inactive) | 7.73 µM (inactive) | 6.44 | 14.6 µM (inactive) | 12.6 µM (inactive) | 0.594 µM (active) | 1.51 µM (inactive) | 0.418 µM (active) | 5.61 µM (inactive) | 5.96 µM (inactive) | 8.09 µM (inactive) | 7.52 µM (inactive)
NCCCCC(=O)c1cccnc1 | > 100 µM (inactive) | > 100 µM (inactive) | – | > 100 µM (inactive) | – | > 100 µM (inactive) | > 100 µM (inactive) | > 100 µM (inactive) | > 100 µM (inactive) | – | > 100 | > 100 µM (inactive) | > 100 µM (inactive) | > 100 µM (inactive) | > 100 µM (inactive) | > 100 µM (inactive) | > 100 µM (inactive) | – | – | –
CC(C)(C)c1cc(C(O)(C(=O)O)C(=O)O)cc(C(C)(C)C)c1O | > 100 µM (inactive) | > 100 µM (inactive) | > 100 µM (inactive) | – | > 100 µM (inactive) | > 100 µM (inactive) | > 100 µM (inactive) | > 100 µM (inactive) | > 100 µM (inactive) | > 100 µM (inactive) | > 100 | > 100 µM (inactive) | > 100 µM (inactive) | > 100 µM (inactive) | > 100 µM (inactive) | > 100 µM (inactive) | > 100 µM (inactive) | > 100 µM (inactive) | > 100 µM (inactive) | > 100 µM (inactive)
CC(C)(O)C1OCC(C2CCC3(C)C4=CCC5C(C)(C)C(O)CCC5(C)C4CCC23C)CC1O (stereo not drawn) | 4.44 µM (inactive) | 17.1 µM (inactive) | 15.3 µM (inactive) | – | 11.8 µM (inactive) | 13.1 µM (inactive) | 18.4 µM (inactive) | 27.7 µM (inactive) | 15.2 µM (inactive) | 14.4 µM (inactive) | 14.8 | 15.8 µM (inactive) | 14.1 µM (inactive) | 10.8 µM (inactive) | 13.6 µM (inactive) | 26.4 µM (inactive) | 16.7 µM (inactive) | 11.6 µM (inactive) | 13.7 µM (inactive) | 11.1 µM (inactive)
C/C(=N/NS(=O)(=O)c1ccccc1)c1cccc[n+]1[O-] | – | > 100 µM (inactive) | > 100 µM (inactive) | > 100 µM (inactive) | > 100 µM (inactive) | > 100 µM (inactive) | > 100 µM (inactive) | > 100 µM (inactive) | > 100 µM (inactive) | > 100 µM (inactive) | > 100 | > 100 µM (inactive) | > 100 µM (inactive) | > 100 µM (inactive) | > 100 µM (inactive) | > 100 µM (inactive) | > 100 µM (inactive) | – | – | –
